Test results as given in paper PMC8149352 (Cancer Chemotherapy and Pharmacology, 2021).
Values joined by “and” are separate entries in the source; they are usually repeats but may differ in a detail not shown here. Identical values can stand only once. Like-named read-outs stand apart in the source and are kept apart here.

Legend:
[1] = Part A: effect of strong CYP3A inducer rifampin on single-dose pamiparib plasma PK (phase 1 DDI study); assay type: in vivo, human (patients with advanced solid tumors); conditions: for Tmax: read-out: pamiparib tmax, median (range)
Description: This was an open-label, parallel-group, phase 1 study consisting of a 2-part core phase and an extension phase. Only results for the core phases are reported herein (Supplementary Fig. 1). […] Blood samples for PK analysis were obtained on days 1 and 10 at predose, and at 0.5, 1, 2, 4, 6, 9, 12, 24, and 48 h postdose. Pamiparib plasma concentrations were determined using a validated liquid chromatography–mass spectrometry/mass spectrometry method (lower limit of quantification 1.0 ng/mL) at Covance Laboratory Services (Salt Lake City, Utah). […]
(§1) The safety population included all patients who received at least one dose of pamiparib. […] Plasma PK parameters were calculated from pamiparib concentration–time profiles using standard noncompartmental methods. PK parameters were calculated using Phoenix WinNonlin v6.4 or higher (Certara, Princeton, NJ, USA). […] Data for each treatment part were analyzed separately. Log-transformed AUC and Cmax values were analyzed using a linear mixed-effect model analysis assuming a fixed effect for treatment and a random effect for patients. The study design called for ~ 24 patients (12 in each part) to be enrolled to ensure at least 20 (10 in each part) completed the study. This sample size was based on the precedent set by other PK studies of a similar nature and was not based on power calculations.

[2] = Part B: effect of strong CYP3A inhibitor itraconazole on single-dose pamiparib plasma PK (phase 1 DDI study); assay type: in vivo, human (patients with solid tumors); conditions: for half-life / AUC(0-inf) / AUC(0-t) / Tmax / Cmax: human; for half-life / AUC(0-inf) / AUC(0-t) / Tmax: plasma, oral; for AUC(0-inf): N = 12, read-out: pamiparib AUC0-inf, GLSM (% CV); for AUC(0-t): N = 12, read-out: pamiparib AUC0-tlast, GLSM (% CV); for Tmax: N = 12, read-out: pamiparib tmax, median (range); for Cmax: N = 12, plasma, read-out: pamiparib Cmax, GLSM (% CV)
Description: Part B of the core phase assessed the effect of the strong CYP3A inhibitor itraconazole on the PK of pamiparib in patients with solid tumors. All patients received a single dose of oral pamiparib 20 mg on days 1 and 7, and oral itraconazole 200 mg QD on days 3–8. The 20-mg pamiparib dose, the lowest dose strength available and one-sixth of the highest phase 1 dose (120 mg), was deemed sufficient to cover the plasma exposure increase due to complete blockade of CYP3A by itraconazole. Part B patients fasted for at least 8 h before and at least 4 h after pamiparib administration, except for day 7 upon which itraconazole administration occurred ~ 30 min after completing a meal and pamiparib administration followed within 5 min of itraconazole administration. Blood samples for PK analysis were obtained on days 1 and 7 at the same time points listed above for Part A. After completing the core phase in Part A and Part B, patients were offered participation in the extension phase, in which they were to receive pamiparib PO BID in 28-day cycles until disease progression, unacceptable toxicity, withdrawal of consent, or any other reason for discontinuation. […]
as §1

[3] = Part A safety: adverse events (NCI CTCAE v5.0), safety population; assay type: in vivo, human (patients with advanced solid tumors)
Description: This was an open-label, parallel-group, phase 1 study consisting of a 2-part core phase and an extension phase. Only results for the core phases are reported herein (Supplementary Fig. 1). […] Blood samples for PK analysis were obtained on days 1 and 10 at predose, and at 0.5, 1, 2, 4, 6, 9, 12, 24, and 48 h postdose. Pamiparib plasma concentrations were determined using a validated liquid chromatography–mass spectrometry/mass spectrometry method (lower limit of quantification 1.0 ng/mL) at Covance Laboratory Services (Salt Lake City, Utah).
(§2) Adverse events (AEs) were monitored throughout the study and were graded according to the National Cancer Institute Common Terminology Criteria v5.0.
as §1

[4] = Part B safety: adverse events (NCI CTCAE v5.0), safety population; assay type: in vivo, human (patients with solid tumors)
Description: Part B of the core phase assessed the effect of the strong CYP3A inhibitor itraconazole on the PK of pamiparib in patients with solid tumors. All patients received a single dose of oral pamiparib 20 mg on days 1 and 7, and oral itraconazole 200 mg QD on days 3–8. The 20-mg pamiparib dose, the lowest dose strength available and one-sixth of the highest phase 1 dose (120 mg), was deemed sufficient to cover the plasma exposure increase due to complete blockade of CYP3A by itraconazole. Part B patients fasted for at least 8 h before and at least 4 h after pamiparib administration, except for day 7 upon which itraconazole administration occurred ~ 30 min after completing a meal and pamiparib administration followed within 5 min of itraconazole administration. Blood samples for PK analysis were obtained on days 1 and 7 at the same time points listed above for Part A. After completing the core phase in Part A and Part B, patients were offered participation in the extension phase, in which they were to receive pamiparib PO BID in 28-day cycles until disease progression, unacceptable toxicity, withdrawal of consent, or any other reason for discontinuation.
as §2, §1

[5] = parameters: method as in earlier work; conditions: cited from earlier work
[6] = tested on: poly(ADP-ribose) synthesis in peripheral blood mononuclear cells; parameters: method as in earlier work; conditions: pamiparib doses of 10 mg or higher; cited from earlier work
P-glycoprotein = tested on: P-glycoprotein; parameters: method as in PMID 32652442; conditions: cited from earlier work
[7] = tested on: cytochromes P450 3A (CYP3A) and P450 2C8; parameters: method as in unpublished data; conditions: in vitro phenotyping study; ref unpublished data; cited from earlier work
[8] = parameters: method as in not given; conditions: in vitro and animal studies; ref not given; cited from earlier work
[9] = Part A, rifampin 600 mg QD coadministration
[10] = pamiparib 20 mg alone, day 1, reference
[11] = pamiparib 20 mg day 7 with itraconazole 200 mg QD, test
[12] = Part A (N = 12), by treatment period
[13] = Part B (N = 13; N = 12 for pamiparib with itraconazole), by treatment period

SMILES: C[C@]12CCCN1CC1=NNC(=O)c3cc(F)cc4[nH]c2c1c34 [Pamiparib]
- reduction of pamiparib plasma exposure (AUC) with rifampin coadministration ([1]; Part A, AUC0-tlast to AUC0-inf): 38–43%
- reduction of pamiparib AUC0-inf (geometric mean) with rifampin versus day 1 [1, 9]: ~43%
- reduction of pamiparib AUC0-tlast (geometric mean) with rifampin versus day 1 [1, 9]: ~ 38% and 38%
- half-life ([1]; human, plasma, oral, 60 mg, Part A, pamiparib 60 mg alone, day 1, reference, N = 9, read-out: pamiparib t1/2, median (range) (converted)): 13.4 h
- half-life ([1]; human, plasma, oral, 60 mg, Part A, pamiparib 60 mg alone, read-out: pamiparib mean t1/2 (converted)): 12.5 h
- half-life ([1]; human, plasma, oral, Part A, pamiparib 60 mg day 10 with rifampin 600 mg QD, test, N = 11, read-out: pamiparib t1/2, median (range) (converted)): 7.7 h
- half-life ([1]; human, plasma, oral, Part A, pamiparib 60 mg in combination with rifampin, read-out: pamiparib mean t1/2 (converted)): 7.94 h
- AUC(0-inf) ([1]; human, plasma, oral, Part A, pamiparib 60 mg alone, day 1, reference, N = 9, read-out: pamiparib AUC0-inf, GLSM (% CV)): 29500 ng·h/mL
- AUC(0-t) ([1]; human, plasma, oral, Part A, pamiparib 60 mg alone, day 1, reference, N = 11, read-out: pamiparib AUC0-tlast, GLSM (% CV)): 28800 ng·h/mL
- Tmax ([1]; human, plasma, oral, Part A, pamiparib 60 mg alone, day 1, reference, N = 11): 2 h
- Tmax ([1]; human, plasma, oral): 2 h
- Cmax ([1]; human, Part A, single oral pamiparib 60 mg alone, day 1, reference, N = 11, plasma, read-out: pamiparib Cmax, GLSM (% CV)): 1990 ng/mL
- half-life ([2]; 20 mg, pamiparib 20 mg alone, day 1, reference, N = 12, read-out: pamiparib t1/2, median (range) (converted)): 9.3 h
- AUC(0-inf) [2, 10]: 8440 ng·h/mL
- AUC(0-t) [2, 10]: 7840 ng·h/mL
- Tmax [2, 10]: 2 h
- AUC(0-inf) [2, 11]: 8380 ng·h/mL
- AUC(0-t) [2, 11]: 7790 ng·h/mL
- half-life ([2]; pamiparib 20 mg day 7 with itraconazole 200 mg QD, test, N = 12, read-out: pamiparib t1/2, median (range) (converted)): 11.2 h
- Tmax [2, 11]: 1 h
- half-life ([2]; pamiparib 20 mg in combination with itraconazole, read-out: pamiparib mean t1/2 (converted)): 12 h
- Cmax ([2]; single oral pamiparib 20 mg alone, day 1, reference): 665 ng/mL
- Cmax ([2]; single oral pamiparib 20 mg on day 7 with itraconazole 200 mg QD (days 3-8), test): 699 ng/mL
- pamiparib mean t1/2 ([2]; pamiparib 20 mg alone): 11.9 h
- All TEAEs (any grade), patients [3, 12]: 1 (8.3) n (%)
- Any treatment-related TEAE, patients [3, 12]: 0 n (%)
- Grade >= 3 TEAE, patients [3, 12]: 0 n (%)
- Serious AE, patients [3, 12]: 0 n (%)
- Treatment-related TEAE related to both, patients [3, 12]: 0 n (%)
- Treatment-related TEAE related to pamiparib only, patients [3, 12]: 0 n (%)
- Treatment-related TEAE related to rifampin only, patients [3, 12]: 0 n (%)
- tolerability ([3]; single dose 60 mg pamiparib alone or coadministered with 600 mg rifampin): well tolerated
- All TEAEs (any grade), patients [4, 13]: 2 (15.4) n (%)
- Any treatment-related TEAE, patients [4, 13]: 1 (7.7) n (%)
- Grade >= 3 TEAE, patients [4, 13]: 0 n (%)
- Serious AE, patients [4, 13]: 0 n (%)
- Treatment-related TEAE related to both, patients [4, 13]: 0 n (%)
- Treatment-related TEAE related to itraconazole only, patients [4, 13]: 0 n (%)
- Treatment-related TEAE related to pamiparib only, patients [4, 13]: 1 (7.7) n (%)
- Serious AE related to both, patients ([4]; Part B, by treatment period): 0 n (%)
- Serious AE related to itraconazole only, patients ([4]; Part B, by treatment period): 0 n (%)
- Serious AE related to pamiparib only, patients ([4]; Part B, by treatment period): 0 n (%)
- tolerability ([4]; single dose 20 mg pamiparib alone or coadministered with 200 mg itraconazole): well tolerated
- accumulation ratio for AUC (95% CI) ([5]; 60 mg BID): 2.37 (95% CI, 1.61–3.50)
- accumulation ratio for Cmax (95% CI) ([5]; 60 mg BID): 1.99 (95% CI, 1.47–2.69)
- geometric mean half-life ([5]; 60 mg BID): 13.5 h
- tolerability ([5]; first-in-human study): well tolerated
- median time to maximum concentration (tmax) ([5]; first-in-human study, oral): 1 to 2 h
- anti-tumor activity ([5]; patients with high-grade epithelial non-mucinous ovarian cancer): preliminary anti-tumor activity
- sustained inhibition of poly(ADP-ribose) synthesis in peripheral blood mononuclear cells [6]: ~ 80%
- P-glycoprotein substrate status (P-glycoprotein): not a substrate of P-glycoprotein
- enzymes mediating metabolism [7]: primarily mediated by cytochromes P450 3A (CYP3A) and P450 2C8
- clastogenicity [8]: clastogenic activity
